Key:
[1] = biological target: Sodium-dependent noradrenaline transporter (Homo sapiens, UniProt P23975)
[2] = biological target: Sodium-dependent serotonin transporter (Homo sapiens, UniProt P31645)
[3] = biological target: Sodium-dependent dopamine transporter (Homo sapiens, UniProt Q01959)
[4] = Metabolic stability in human liver microsomes assessed as systemic clearance; format: ADME, Microsome
[5] = Lipophilicity, Log D of the compound; format: physicochemical; settings: octanol/water
[6] = Partition coefficient, log P of the compound; format: physicochemical; settings: octanol/water
[7] = Apparent permeability across human Caco-2 cells; format: ADME, cell-based
[8] = physchem
Description: Dissociation constant, pKa of the compound

[9] = Renal clearance in human; format: ADME, organism-based, Kidney; settings: in vivo, read-out: CL_renal
[10] = Elimination half life in human; format: ADME, organism-based; settings: in vivo
[11] = clinical; settings: human, in vivo, po
Description: Oral bioavailability in human

Chain of Sodium-dependent serotonin transporter (P31645 whole entry): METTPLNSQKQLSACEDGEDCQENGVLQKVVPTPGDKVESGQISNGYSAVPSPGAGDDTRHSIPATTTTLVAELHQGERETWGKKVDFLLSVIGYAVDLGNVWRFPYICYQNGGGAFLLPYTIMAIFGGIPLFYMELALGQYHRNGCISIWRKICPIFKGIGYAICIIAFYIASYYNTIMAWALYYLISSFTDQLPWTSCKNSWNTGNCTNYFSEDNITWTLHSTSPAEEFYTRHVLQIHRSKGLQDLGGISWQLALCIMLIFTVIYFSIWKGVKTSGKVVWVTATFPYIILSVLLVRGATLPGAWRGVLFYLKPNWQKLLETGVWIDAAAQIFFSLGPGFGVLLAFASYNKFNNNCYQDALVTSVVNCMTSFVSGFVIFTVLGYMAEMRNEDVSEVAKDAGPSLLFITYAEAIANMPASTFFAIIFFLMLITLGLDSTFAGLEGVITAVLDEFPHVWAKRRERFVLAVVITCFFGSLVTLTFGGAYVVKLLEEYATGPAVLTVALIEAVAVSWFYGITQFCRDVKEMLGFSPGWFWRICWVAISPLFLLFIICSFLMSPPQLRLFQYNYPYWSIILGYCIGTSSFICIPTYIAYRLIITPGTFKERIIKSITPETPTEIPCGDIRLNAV
Chain of Sodium-dependent dopamine transporter (Q01959 whole entry): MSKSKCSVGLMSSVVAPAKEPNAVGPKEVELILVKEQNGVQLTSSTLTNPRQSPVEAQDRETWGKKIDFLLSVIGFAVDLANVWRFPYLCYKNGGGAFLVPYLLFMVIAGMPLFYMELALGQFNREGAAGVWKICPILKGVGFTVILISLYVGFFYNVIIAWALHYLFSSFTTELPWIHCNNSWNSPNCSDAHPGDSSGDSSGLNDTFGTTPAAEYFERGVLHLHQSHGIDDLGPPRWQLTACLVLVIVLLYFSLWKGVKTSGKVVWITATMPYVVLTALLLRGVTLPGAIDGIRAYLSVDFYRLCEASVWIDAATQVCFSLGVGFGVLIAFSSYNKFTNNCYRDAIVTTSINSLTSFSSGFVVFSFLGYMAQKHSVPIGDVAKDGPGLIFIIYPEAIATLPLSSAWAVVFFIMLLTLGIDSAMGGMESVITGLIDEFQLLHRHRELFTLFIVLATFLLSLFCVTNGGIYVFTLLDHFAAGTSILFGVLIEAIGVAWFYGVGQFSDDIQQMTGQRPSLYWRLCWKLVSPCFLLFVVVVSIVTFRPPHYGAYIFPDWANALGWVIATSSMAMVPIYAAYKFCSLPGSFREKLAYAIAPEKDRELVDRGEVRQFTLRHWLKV
Chain of Sodium-dependent noradrenaline transporter (P23975 whole entry): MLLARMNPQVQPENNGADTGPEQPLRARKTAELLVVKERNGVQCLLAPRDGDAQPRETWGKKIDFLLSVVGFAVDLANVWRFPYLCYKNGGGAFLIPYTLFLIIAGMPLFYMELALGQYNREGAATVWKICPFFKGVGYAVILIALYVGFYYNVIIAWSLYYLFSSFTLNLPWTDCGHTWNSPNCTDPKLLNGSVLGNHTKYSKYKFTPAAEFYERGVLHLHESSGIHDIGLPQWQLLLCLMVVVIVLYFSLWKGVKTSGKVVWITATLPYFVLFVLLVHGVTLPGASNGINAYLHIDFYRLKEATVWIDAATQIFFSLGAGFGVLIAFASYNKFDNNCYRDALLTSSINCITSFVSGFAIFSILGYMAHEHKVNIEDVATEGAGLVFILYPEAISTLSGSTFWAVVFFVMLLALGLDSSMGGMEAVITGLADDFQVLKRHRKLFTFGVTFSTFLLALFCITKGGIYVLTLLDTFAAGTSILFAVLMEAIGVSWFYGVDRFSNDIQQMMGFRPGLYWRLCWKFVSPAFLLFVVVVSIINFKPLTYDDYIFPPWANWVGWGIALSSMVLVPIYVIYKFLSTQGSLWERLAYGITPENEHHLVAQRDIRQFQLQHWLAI

With CCN(CC)C(=O)[C@@]1(c2ccc3sccc3c2)C[C@H]1CN the IC50 [1] was 47 nM, the IC50 [2] was 1100 nM and the IC50 [3] was 1300 nM.
C=CCN(CC=C)C(=O)[C@@]1(c2ccc3c(c2)OCCO3)C[C@H]1CN gave a CLhep predicted [4] of 8.1 mL/min/kg, an IC50 [1] of 3.5 nM and an IC50 [2] of 32 nM. For the same compound, the IC50 [3] was 6300 nM.
In the case of C=C(F)CN(C)C(=O)[C@@]1(c2ccc3c(c2)OCCO3)C[C@H]1CN, the IC50 [1] is reported as 8.1 nM, the IC50 [2] is reported as 100 nM and the IC50 [3] is reported as > 10000 nM.
With C#CCN(C(=O)[C@@]1(c2ccc3c(c2)OCCO3)C[C@H]1CN)C1CC1 the IC50 [1] was 4.4 nM, the IC50 [2] was 160 nM and the IC50 [3] was > 10000 nM.
For C=CCN(CC)C(=O)[C@@]1(c2ccc3c(c2)CCO3)C[C@H]1CN, the IC50 [1] was 18 nM, the IC50 [2] was 430 nM and the IC50 [3] was > 10000 nM.
For CCN(CC)C(=O)[C@@]1(c2ccc3occc3c2)C[C@H]1CN, the IC50 [1] was 47 nM, the IC50 [2] was 280 nM and the IC50 [3] was > 10000 nM.
For C#CCN(CC(=C)F)C(=O)[C@@]1(c2ccc3c(c2)OCCO3)C[C@H]1CN, the IC50 [1] was 4 nM, the IC50 [2] was 54 nM and the IC50 [3] was > 10000 nM.
For C=CCN(CC=C)C(=O)[C@@]1(c2ccc3c(c2)OCO3)C[C@H]1CN, the IC50 [1] was 7 nM, the IC50 [2] was 58 nM and the IC50 [3] was > 10000 nM.
For C#CCN(CC)C(=O)[C@@]1(c2ccc3c(c2)OCCO3)C[C@H]1CN, the IC50 [1] was 5.9 nM, the IC50 [2] was 125 nM and the IC50 [3] was > 10000 nM.
In the case of C=CCN(CC#CC)C(=O)[C@@]1(c2ccc3c(c2)OCO3)C[C@H]1CN, the IC50 [1] is reported as 15 nM, the IC50 [2] is reported as 64 nM and the IC50 [3] is reported as > 10000 nM.
In the case of CCN(CC)C(=O)[C@@]1(c2ccc3c(c2)OCO3)C[C@H]1CN, the logD [5] is reported as 0.4, the logP [6] is reported as 1.7 and the CLhep predicted [4] is reported as 7.9 mL/min/kg. For the same compound, the Papp [7] was 4.7 ×10⁻⁶ cm/s, the IC50 [1] was 12 nM and the IC50 [2] was 480 nM. The IC50 [3] was > 10000 nM and the pKa [8] was 9.6.
NC[C@@H]1C[C@@]1(C(=O)N1CCc2ccccc2C1)c1ccc2c(c1)OCO2 showed an IC50 [1] of 6.5 nM, an IC50 [2] of 26 nM and an IC50 [3] of 3600 nM.
Compound CCN(CC)C(=O)[C@@]1(c2ccc3c(c2)OCCO3)C[C@H]1CN has a CLhep predicted [4] of 4.4 mL/min/kg, an IC50 [1] of 6.3 nM and an IC50 [2] of 140 nM. The IC50 [3] was > 10000 nM.
C#CCN(CC#C)C(=O)[C@@]1(c2ccc3c(c2)OCCO3)C[C@H]1CN showed a CLhep predicted [4] of 7.9 mL/min/kg, a Papp [7] of 5.2 ×10⁻⁶ cm/s and an IC50 [1] of 1.7 nM. The IC50 [2] was 25 nM and the IC50 [3] was > 10000 nM.
For C=CCN(CCC)C(=O)[C@@]1(c2ccc3c(c2)CCO3)C[C@H]1CN, the IC50 [1] was 21 nM, the IC50 [2] was 1700 nM and the IC50 [3] was > 10000 nM.
For CCN(CC)C(=O)[C@@]1(c2ccc3c(c2)CCO3)C[C@H]1CN, the IC50 [1] was 160 nM, the IC50 [2] was 2100 nM and the IC50 [3] was > 10000 nM.
For C=CCN(CC=C)C(=O)[C@@]1(c2ccc3c(c2)CCO3)C[C@H]1CN, the IC50 [1] was 4.5 nM, the IC50 [2] was 270 nM and the IC50 [3] was > 10000 nM.
For CCN(CC)C(=O)[C@@]1(c2cccc(F)c2)C[C@H]1CN, the IC50 [1] was 73 nM, the IC50 [2] was 370 nM and the IC50 [3] was > 10000 nM.
For C=CCN(CC(=C)F)C(=O)[C@@]1(c2ccc3c(c2)OCCO3)C[C@H]1CN, the IC50 [1] was 3.2 nM, the IC50 [2] was 39 nM and the IC50 [3] was 2900 nM.
With C#CCN(CC1CC1)C(=O)[C@@]1(c2ccc3c(c2)OCCO3)C[C@H]1CN the IC50 [1] was 3.9 nM, the IC50 [2] was 210 nM and the IC50 [3] was > 10000 nM.
With C=C(F)CN(CC)C(=O)[C@@]1(c2ccc3c(c2)OCCO3)C[C@H]1CN the IC50 [1] was 5.2 nM, the IC50 [2] was 112 nM and the IC50 [3] was > 10000 nM.
With CCN(CC)C(=O)[C@@]1(c2ccc3c(c2)CCC3)C[C@H]1CN the IC50 [1] was 160 nM, the IC50 [2] was 480 nM and the IC50 [3] was > 10000 nM.
With C=CCN(CC)C(=O)[C@@]1(c2ccc3c(c2)OCO3)C[C@H]1CN the IC50 [1] was 7.1 nM, the IC50 [2] was 150 nM and the IC50 [3] was > 10000 nM.
For CCN(CC1CC1)C(=O)[C@@]1(c2ccc3c(c2)OCCO3)C[C@H]1CN, the IC50 [1] was 7.1 nM, the IC50 [2] was 540 nM and the IC50 [3] was > 10000 nM.
With C#CCN(CC#C)C(=O)[C@@]1(c2ccc3c(c2)OCO3)C[C@H]1CN the IC50 [1] was 7.6 nM, the IC50 [2] was 49 nM and the IC50 [3] was 4300 nM.
For C#CCN(CC=C)C(=O)[C@@]1(c2ccc3c(c2)CCO3)C[C@H]1CN, the IC50 [1] was 14 nM, the IC50 [2] was 130 nM and the IC50 [3] was > 10000 nM.
In the case of NC[C@@H]1C[C@@]1(C(=O)N1CCc2ccccc21)c1ccc2c(c1)OCO2, the IC50 [1] is reported as 4.2 nM, the IC50 [2] is reported as 28 nM and the IC50 [3] is reported as 640 nM.
With NC[C@@H]1C[C@@]1(C(=O)N1CCc2sccc2C1)c1ccc2c(c1)OCO2 the IC50 [1] was 9.4 nM, the IC50 [2] was 14 nM and the IC50 [3] was > 10000 nM.
For C=CCN(CC#CC)C(=O)[C@@]1(c2ccc3c(c2)CCO3)C[C@H]1CN, the IC50 [1] was 40 nM, the IC50 [2] was 210 nM and the IC50 [3] was > 10000 nM.
For CC#CCN(CCC)C(=O)[C@@]1(c2ccc3c(c2)CCO3)C[C@H]1CN, the IC50 [1] was 80 nM, the IC50 [2] was 460 nM and the IC50 [3] was > 10000 nM.
Work on NC[C@@H]1C[C@@]1(C(=O)C1NCc2ccccc21)c1ccc2c(c1)OCO2 (stereo partly drawn) yielded an IC50 [1] of 20 nM, an IC50 [2] of 77 nM and an IC50 [3] of 3600 nM.
With NC[C@@H]1C[C@@]1(C(=O)N1CCOc2ccccc21)c1ccc2c(c1)OCO2 the IC50 [1] was 5.8 nM, the IC50 [2] was 320 nM and the IC50 [3] was 5100 nM.
For C#CCN(CC#C)C(=O)[C@@]1(c2ccc3c(c2)CCO3)C[C@H]1CN, the IC50 [1] was 17 nM, the IC50 [2] was 145 nM and the IC50 [3] was > 10000 nM.
In the case of C=CCN(CC)C(=O)[C@@]1(c2ccc3c(c2)OCCO3)C[C@H]1CN, the CLhep predicted [4] is reported as 8.8 mL/min/kg, the IC50 [1] is reported as 2.9 nM and the IC50 [2] is reported as 65 nM. For the same compound, the IC50 [3] was > 10000 nM.
With C=CCN(CC)C(=O)C1(c2ccccc2)C(CN)C1c1ccccc1 (racemic) the IC50 [1] was > 10000 nM, the IC50 [2] was 3400 nM and the IC50 [3] was > 10000 nM.
With NCC1C(c2ccccc2)C1(C(=O)N1CCc2ccccc21)c1ccccc1 (racemic) the IC50 [1] was > 10000 nM, the IC50 [2] was 560 nM and the IC50 [3] was 4300 nM.
In the case of CCN(CC)C(=O)C1(c2ccccc2)C(CN)C1c1ccccc1 (racemic), the IC50 [1] is reported as > 10000 nM, the IC50 [2] is reported as 6400 nM and the IC50 [3] is reported as > 10000 nM.
CCN(CC)C(=O)C1(c2ccccc2)CC1CN (racemic) gave a logD [5] of 0 and a CL renal [9] of 350 mL/min.
With C=CCN(CC)C(=O)C1(c2ccccc2)C(CN)C1(C)C (racemic) the IC50 [1] was 6400 nM, the IC50 [2] was > 10000 nM and the IC50 [3] was > 10000 nM.
In the case of CCN(CC)C(=O)C1(c2ccccc2)C(CN)C1(C)C (racemic), the IC50 [1] is reported as > 10000 nM, the IC50 [2] is reported as > 10000 nM and the IC50 [3] is reported as 4500 nM.
With CCN(CC)C(=O)C1(c2ccccc2)CC1(C)CN (racemic) the IC50 [1] was > 10000 nM, the IC50 [2] was 6900 nM and the IC50 [3] was > 10000 nM.
For CC1(C)C(CN)C1(C(=O)N1CCc2ccccc21)c1ccccc1 (racemic), the IC50 [1] was > 10000 nM, the IC50 [2] was > 10000 nM and the IC50 [3] was > 10000 nM.
In the case of CNCC[C@@H](Oc1ccccc1C)c1ccccc1 [ATOMOXETINE], the logD [5] is reported as 0.8, the half-life [10] is reported as 8 h and the logP [6] is reported as 3.5. It also gave a CLhep predicted [4] of 14.3 mL/min/kg and a bioavailability [11] of 85%.
For CCN(CC)C(=O)[C@@]1(c2ccccc2)C[C@H]1CN [LEVOMILNACIPRAN], the logD [5] was -0.2, the logP [6] was 1.6 and the CLhep predicted [4] was 5 mL/min/kg.
